What was measured:
leucocyte migration = test: In vivo leucocyte migration (carrageenan induced pleurisy); design: species or system mice; conditions: 5 mg/kg p.o.
Protocol: Mice were injected with 0.2 ml of carrageenan (1% w/v) solution in sterilised normal saline into the pleural cavity by the modified method of Meacock and Kitchen, 1979 [Meacock S C R, Kitchen E A, (1979). Effect of non-steroidal antiinflammatory drug benoxaprofen on leukocyte migration. Journal of Pharmacy & Pharmacology; 31: 366-370]. The test drug was administered orally 1 h before and 6 h after the injection. After 24 h of carrageenan injection the pleural exudate was collected, volume measured and the total leucocyte count of the pleural fluid was determined (Table 3). Flowcytometry as a tool for evaluation of neutrophils is particularly useful because of their larger size than monocytes and lymphocytes when analysed on the forward scatter [FSc]. The percentage of these can be analysed by selectively ‘gating’ the neutrophils without physical separation of the cells (FIG. 4).

[1] = system: peritoneal murine macrophages; test: Phagocytosis of heat killed Candida albicans by murine macrophages (in vitro); format: cell-based; conditions: 5 μg/ml
Protocol: The method of Lehrer (1981) [Lehrer, R. I. Ingestion and destruction of Candida albicans. (1981) In: Methods for studying mono-nuclear phagocytes. Eds. Adams, D. O., Edelson, P. J. and Koren, H. (Academic Press, New York) 693-7081 was followed. The percentage and average number of Candida albicans cells (heatkilled) ingested by peritoneal murine macrophages was calculated. AD-B-63B was tested at the doses of 1, 2.5, Sand 10 μg/mL (Table 4).

skin allograft rejection = test: Skin allograft rejection time; format: in vivo, mice; conditions: for GRAFT REJECTION (Percent), delayed: 5 mg/kg p.o.
Protocol: The modified method of Billingham and Medawar (1951) [[…]] was followed to study the skin allograft rejection time in mice. Graded doses of test material AD-B-63B were administered to the animals for 7 days and graft rejection time (GRT) was recorded by daily observation of epithelial skin layer survival. […] The basic mechanism involved in increase in graft rejection time is the suppression of T lymphocytes. After transplantation, MHC peptide complexes of the foreign organ are recognized by CD4+ and CD8+ T cells of the recipient as non-self antigens. These T cells differentiate into effector T cells and stimulate an immune response. After T cells differentiate and migrate to the site, macrophages and other inflammatory agents are mediated to the site. Cytotoxic T cells (CD8+) lyse the endothelial cells on the graft, CD4+ Th1 activate macrophages and CD4+ Th2 aid in antibody production.

[2] = system: cell mediated immune response (DTH); test: SRBC induced delayed type hypersensitivity (DTH) response; format: in vivo, mice; conditions: 5 mg/kg p.o.
Protocol: Test material was administered 2 h after immunization of mice by 200 μl of 5×10^9 SRBCs/ml. On 7th day, the thickness of the left hind foot was measured with spheromicrometer (0.01 mm pitch) and was considered as control. These mice were then challenged by injecting the 20 μl of 5×10^9 SRBCs/ml intradermally into the left hind footpad. The footpad thickness was measured again at 24 h after challenge (Doherty, 1981).

[3] = system: humoral antibody response; test: SRBC induced haemagglutination antibody titre (humoral immune response); format: in vivo, mice
Protocol: 200 μl of 5×10^9 SRBC/ml was used to immunize the animals on day 0. Animals were treated with graded doses of AD-B-63B i.e., 1, 2.5, 5 and 10mg/kg p.o. for next six consecutive days. Blood samples were collected on day 7 for antibody titre assay. Haemagglutination antibody titre was determined following the microtitration technique described by Nelson and Midenhall, 1967. The value of highest serum dilution causing visible Haemagglutination was taken as titre. BSA saline alone served as control (Table 7).

TNF-α = test: Intracellular TNF-α estimation in LPS activated murine neutrophils by flowcytometry; format: cell-based; conditions: 100 μg/ml
Protocol: Flowcytometric studies were carried out to determine the anti-inflammatory effect of AD-B-63B on TNF-α cytokine expression in LPS activated murine neutrophils. Neutrophils play essential roles in host defence through their ability to clear bacterial infections. Their inappropriate activation contributes to a variety of inflammatory diseases, from the acute respiratory distress syndrome to asthma, chronic obstructive pulmonary disease and rheumatoid arthritis. TNF-α was chosen as the target for anti-inflammatory activity because of the fact that it is a pro-inflammatory cytokine and plays a major role in the pathogenesis of septic shock induced by LPS (Lipopolysaccharide) endotoxin injection [Remick, D. G.; Strieter, R. M.; Eskandari, M. K.; Nguyen, D. T.; Genord, M. A.; Raiford, C. L. Am. J. Path. 1990, 136, 49.]. LPS is an important triggering factor for in vivo systemic inflammatory response [Bone, R. C. Chest 1991, 100, 802]. LPS activates neutrophils via engagement of TLR4 (Toll-like receptor 4),[Sabroe, I.; Read, R. C.; Whyte, M. K. B.; Dockrell, D. H.; Vogel, S. N.; Dower, S. K. J. Immunol. 2003, 171, 1630.] resulting in the induction of a characteristic pro-inflammatory phenotype and prolongation of cell lifespan [Lee, A.; Whyte, M. K. B.; Haslett, C. J. Leukoc. Biol. 1993, 54, 283].
The anti-inflammatory activity of AD-B-63B was measured by the estimation of intracellular tumor necrosis factor alpha (TNF-α) expression in a gated population of neutrophils [Clara, B., R. C. Arancha, G. M. Andre's, P. Atanasio, A. Julia, and O. Alberto. 2003. A new method for detecting TNF-α-secreting cells using direct immunofluorescence surface membrane stainings. J. Immuno. Methods 264:77-87.]. Murine blood was subjected to centrifugation at 250× g for 20 min. Three layers were formed: an upper layer of platelet-rich plasma, a buffy coat middle layer and a lower layer formed of red blood cells. The middle layer was removed and subjected to Histopaque 1077 (Sigma) gradient separation. The upper layer containing neutrophils was removed and transferred to FACS tubes (Becton Dickinson). Lipopolysaccharide (LPS) derived from Escherichia coli (Sigma) was added at a concentration of 10 ng/ml for the stimulation of the cells. AD-B-63B was added at graded concentrations of 0.5, 1, 2.5, 5, 10 and 20 μg/ml. Samples were incubated for 3 h at 37° C. ( Table 1) Controls consisted of LPS-stimulated cells (LPS control). Further processing was done by the addition of FACS permeabilizing solution (Becton Dickinson), followed by the addition of phycoerythrin (PE)-labeled anti-mouse TNF-α. (Becton Dickinson). The cells were incubated in the dark, and after being washed with sterile PBS, samples were resuspended in PBS (pH 7.4) and acquired directly on the flow cytometer (FACS CANTO; Becton Dickinson). A fluorescence trigger was set on the […] parameter of the gated neutrophil populations (10,000 events). Rolipram at 100 μg/ml was used as standard inhibitor of TNF-α in this study. Fluorescence compensation, data analysis and data presentation were performed using software (Becton Dickinson) (FIG. 1) [Pandey A, Bani S, Kaul S, Sangawan P L; 2010, Selective Th1 upregulation by ethyl acetate fraction of Labisia pumila; 132 (2010) 309-315].

[4] = system: Interleukin-1beta (IL-1β); test: Extracellular IL-1β in LPS stimulated murine neutrophils (ELISA, in vitro); format: cell-based; conditions: 100 μg/ml
Protocol: Neutrophils were separated from whole blood by Histopaque gradient method (Histopaque-No. 1077). Cell count was adjusted to approximately 10^5/[…]. Lipopolysaccharide, at the concentration of 10 ng/ml was used as stimulus in in-vitro studies. […] Extracellular IL-1β was estimated through ELISA (Table 2) [Weir, R. E., Morgan, A. R., Britton, W. J., Butlin, C. R., Dockrell, H. M., 1994. Development of a whole blood assay to measure T cell responses to leprosy: a new tool for immuno-epidemiological fields studies of leprosy immunity. J. Immunol. Methods. 176, 93; Hussain, R., Kaleem, A., Shahid, F., Dojki, M., Jamil, B., Mehmood, H., Dawood, G., Dockrell, H., 2002. Cytokine profiles using whole blood assays can discriminate between tuberculosis patients and healthy endemic controls in a BCG-vaccinated population. J. Immunol. Methods. 264, 95-108]

SMILES | % inhibition of exudate volume (leucocyte migration) | % inhibition of total leucocyte count (leucocyte migration) | EXUDATE VOLUME Mean ± S.E. (leucocyte migration; 1 h before and 6 h after carrageenan, pleural exudate at 24 h) [mL] | % phagocytosis [in vitro study] Mean ± S.E. [1] [%] | percent decrease in phagocytosis [1] [%] | percent decrease in phagocytosis ([1]; listed as PREDNISOLONE) | GRAFT REJECTION (Percent), delayed (skin allograft rejection) [%] | REJECTION TIME Mean ± S.E. (skin allograft rejection; 5 mg/kg p.o. for 7 days) [days] | GRAFT REJECTION (Percent), delayed (skin allograft rejection; listed as PREDNISOLONE) | PERCENT INHIBITION (DTH response) [2] | FOOT PAD THICKNESS Mean ± SE ([2]; 24 h after SRBC challenge) [mm] | % ACTIVITY (decrease in antibody titre) ([3]; 5 mg/kg p.o.) | ANTIBODY TITRE MEAN ± S.E ([3]; 5 mg/kg p.o. for six days, blood on day 7) | Expression of intracellular TNF-alpha, Mean ± S.E (TNF-α; LPS 10 ng/ml, 3 h) | inhibition at 100 µg/mL (TNF-α; Mus musculus, Neutrophil, read-out: % TNF-alpha inhibition against LPS control) [%] | % activity IL-1β expression against LPS control (decrease) [4] | Concentration of IL-1β produced Mean ± S.E. ([4]; LPS 10 ng/ml, 4 hr) [pg/mL]
C[C@]12C=CC(=O)C=C1CC[C@@H]1[C@@H]2[C@@H](O)C[C@@]2(C)[C@H]1CC[C@]2(O)C(=O)CO [Prednisolone, reference compound] | (47.27%↓) | (33.23%↓) | 0.58 ± 0.28 | 15.99 ± 2.17 | 40.35 | (40.35%↓) | 39.69 | 18.16 ± 0.16 | 39.69↓ % | 35.86↓ % | 0.59 ± 0.05 | 35.22↓ % | 3.99 ± 0.22 | – | – | – | –
COc1ccc(C2CNC(=O)C2)cc1OC1CCCC1 (centres unmarked) [Rolipram, reference compound] | – | – | – | – | – | – | – | – | – | – | – | – | – | 0.74 ± 0.04 | 72.5 | 52.85↓ % | 63.52 ± 2.07

Reference: patent US20130136772A1, “REGULATION OF IMMUNE RESPONSE BY COLOCYNTHIN AND/OR ITS DERIVATIVES” (priority 2010, published 2013)
